Experimental data reported in PMC3402541, “Guanidylation and Tail Effects in Cationic Antimicrobial Lipopeptoids” (PLoS ONE, 2012).
Converted amounts (≈) assume the structure as drawn. Where a SMILES comes first, the peptide text is derived from it. [ ]: non-standard residue; d: D form. The star is where a group is joined. Myristoyl = CCCCCCCCCCCCCC(=O)*; Nlys = NCCCCNCC(=O)O

Key:
MRSA ATCC 33592 = type: cell-based, methicillin-resistant S. aureus; details: ATCC 33592, 24 h
Procedure: (§1) Antimicrobial activity of the purified lipopeptoids was determined without replication against a panel of clinically relevant and standard reference bacterial strains according to CLSI macrobroth standards. Stock solutions at 512 µg/mL were prepared in water, with DMSO as needed, and testing was performed in glass test tubes using Muller-Hinton broth and bacteria adjusted to 5 × 10^5 CFU/mL. Bacteria were incubated with the lipopeptoid of interest for 24 hr at 37°C prior to reading.
(§2) The bacteria Staphylococcus aureus ATCC 29213, methicillin-resistant S. aureus ATCC 33592, Staphylococcus epidermidis ATCC 14990, Enterococcus faecalis ATCC 29212, E. faecium ATCC 27270, Streptococcus pneumoniae ATCC 49619, Escherichia coli ATCC 25922, Pseudomonas aeruginosa ATCC 27853, and Klebsiella pneumoniae ATCC 13883 were acquired from the American Type Culture Collection (ATCC) and used as quality controls. The clinical strains methicillin-resistant S. epidermidis (MRSE) CAN-ICU 61589, E. coli CAN-ICU 61714, E. coli CAN-ICU 63074, P. aeruginosa CAN-ICU 62308, Stenotrophomonas maltophilia CAN-ICU 62584, Acinetobacter baumannii CAN-ICU 63169 were obtained from hospitals across Canada as part of the CAN-ICU studies, while methicillin-susceptible S. epidermidis (MSSE) 81388 was obtained from the 2008 CANWARD study.
(§3) After subculturing the relevant bacteria twice from frozen stock, in vitro activities of the antimicrobials were determined by macrobroth dilution methodology in accordance with the Clinical and Laboratory Standards Institute (CLSI) guidelines (3). The MICs were determined using glass test tubes (2 mL/tube) containing doubling antimicrobial dilutions of cation adjusted Mueller-Hinton broth inoculated to achieve a final concentration of approximately 5 x 10^5 CFU/mL, incubated in ambient air for 24 hr prior to reading. Colony counts were performed periodically to confirm inocula. The ATCC organisms […] ATCC 49619, Staphylococcus aureus ATCC 29213, Enterococcus faecalis ATCC 29212, Escherichia coli ATCC 25922, and Pseudomonas aeruginosa ATCC 27853 were used as quality control and to allow easy comparison to previously tested antimicrobials. Each test in this series was performed without replication. In our experience with cationic amphiphiles the results are accurate to within a single doubling.

MSSE 81388 CANWARD 2008 = type: cell-based, methicillin-susceptible S. epidermidis; details: 24 h
Procedure: as §1, §2, §3

E.coli CAN-ICU 61714 = type: cell-based, Escherichia coli; details: CAN-ICU 61714, 24 h
Procedure: as §1, §2, §3

E.coli ATCC 25922 = type: cell-based, Escherichia coli; details: ATCC 25922, 24 h
Procedure: as §1, §2, §3

E.coli CAN-ICU 63074 = type: cell-based, Escherichia coli; details: CAN-ICU 63074, 24 h
Procedure: as §1, §2, §3

E. faecalis ATCC 29212 = type: cell-based, Enterococcus faecalis; details: ATCC 29212, 24 h
Procedure: as §1, §2, §3

E. faecium ATCC 27270 = type: cell-based; details: ATCC 27270, 24 h
Procedure: as §1, §2, §3

MRSE CAN-ICU 61589 = type: cell-based, methicillin-resistant S. epidermidis; details: CAN-ICU 61589, 24 h
Procedure: as §1, §2, §3

K.pneumoniae ATCC 13883 = type: cell-based, Klebsiella pneumoniae; details: ATCC 13883, 24 h
Procedure: as §1, §2, §3

[1] = tested on: P.aeruginosa CAN-ICU 62308; type: cell-based, Pseudomonas aeruginosa; details: CAN-ICU 62308, 24 h
Procedure: as §1, §2, §3

P.aeruginosa ATCC 27853 = type: cell-based, Pseudomonas aeruginosa; details: ATCC 27853, 24 h
Procedure: as §1, §2, §3

S.aureus ATCC 29213 = type: cell-based, Staphylococcus aureus; details: ATCC 29213, 24 h
Procedure: as §1, §2, §3

[2] = tested on: S. maltophilia CAN-ICU 62584; type: cell-based, Stenotrophomonas maltophilia; details: CAN-ICU 62584, 24 h
Procedure: as §1, §2, §3

[3] = tested on: A. baumannii CAN-ICU 63169; type: cell-based, Acinetobacter baumannii; details: CAN-ICU 63169, 24 h
Procedure: as §1, §2, §3

S.pneumoniae ATCC 49619 = type: cell-based, Streptococcus pneumoniae; details: ATCC 49619, 24 h
Procedure: as §1, §2, §3

ovine erythrocytes = assay: Haemolytic assay; type: cell-based, sheep; details: ovine erythrocytes in Tris buffered saline, 30 minutes, absorbance of supernatant at 540 nm
Procedure: Mammalian cell toxicity was determined by measuring lysis of ovine erythrocytes, a standard model for human cell toxicity. Cells were prewashed with Tris buffered saline and then incubated with a variety of lipopeptoid concentrations for 30 minutes. Following centrifugation, lysis was evaluated by testing the absorbance of the solution at 540 nm, with 0.5% NH4OH used as a positive control.
Toxicity to mammalian cells was determined using a sheep red blood cell (erythrocyte) haemolytic assay (4). Erythrocytes were washed and resuspended in Tris buffered saline prior to use, at a concentration of 1.46 - 4.5 x 10^9 cells/mL (on average 3.08 x 10^9 cells/mL). The cell suspension was diluted with varying concentrations of antimicrobials, from 50 μg/mL to 1 mg/mL and incubated for thirty minutes (final erythrocyte concentration 4.08 x 10^8 cells/mL). The samples were centrifuged following treatment and the absorbance of the supernatant was measured at 540 nm. A solution of 0.5% […] was used as a positive control, with normal buffered solution as the negative control. The toxicity was assessed as a function of percent haemolysis.

SMILES	MIC MRSA (MRSA ATCC 33592) [µg/mL]	MIC MRSA in the presence of 4% bovine serum albumin (MRSA ATCC 33592) [µg/mL]	MIC MSSE (MSSE 81388 CANWARD 2008) [µg/mL]	MIC MSSE in the presence of 4% bovine serum albumin (MSSE 81388 CANWARD 2008) [µg/mL]	MIC E.coli (E.coli CAN-ICU 61714) [µg/mL]	MIC E.coli in the presence of 4% bovine serum albumin (E.coli CAN-ICU 61714) [µg/mL]	MIC E.coli (E.coli ATCC 25922) [µg/mL]	MIC E.coli in the presence of 4% bovine serum albumin (E.coli ATCC 25922) [µg/mL]	MIC E.coli (E.coli CAN-ICU 63074) [µg/mL]	MIC E.coli in the presence of 4% bovine serum albumin (E.coli CAN-ICU 63074) [µg/mL]	MIC E. faecalis (E. faecalis ATCC 29212) [µg/mL]	MIC E. faecalis in the presence of 4% bovine serum albumin (E. faecalis ATCC 29212) [µg/mL]	MIC E. faecium (E. faecium ATCC 27270) [µg/mL]	MIC E. faecium in the presence of 4% bovine serum albumin (E. faecium ATCC 27270) [µg/mL]	MIC MRSE (MRSE CAN-ICU 61589) [µg/mL]	MIC MRSE in the presence of 4% bovine serum albumin (MRSE CAN-ICU 61589) [µg/mL]	MIC K.pneumoniae (K.pneumoniae ATCC 13883) [µg/mL]	MIC K.pneumoniae in the presence of 4% bovine serum albumin (K.pneumoniae ATCC 13883) [µg/mL]	MIC P.aeruginosa [1] [µg/mL]	MIC P.aeruginosa in the presence of 4% bovine serum albumin [1] [µg/mL]	further results
CCCCCCCCCCC(=O)N(CCCCNC(=N)N)CC(=O)N(CCCCNC(=N)N)CC(=O)N(CCCCNC(=N)N)CC(N)=O [C11-NhargNhargNharg]	128 (≈ 184 µM)	512	64 (≈ 92 µM)	512	>512	>512	>512	>512	>512	>512	512 (≈ 736 µM)	>512	256 (≈ 368 µM)	512	256 (≈ 368 µM)	512	>512	>512	>512	>512	MIC P.aeruginosa (P.aeruginosa ATCC 27853): >512 µg/mL; MIC P.aeruginosa in the presence of 4% bovine serum albumin (P.aeruginosa ATCC 27853): >512 µg/mL; MIC S.aureus (S.aureus ATCC 29213): 128 µg/mL (≈ 184 µM); MIC S.aureus in the presence of 4% bovine serum albumin (S.aureus ATCC 29213): 512 µg/mL; MIC S. maltophilia [2]: >512 µg/mL; MIC S. maltophilia in the presence of 4% bovine serum albumin [2]: >512 µg/mL; MIC A. baumannii [3]: >512 µg/mL; MIC A. baumannii in the presence of 4% bovine serum albumin [3]: >512 µg/mL; MIC S.pneumoniae (S.pneumoniae ATCC 49619): 512 µg/mL (≈ 736 µM); MIC S.pneumoniae in the presence of 4% bovine serum albumin (S.pneumoniae ATCC 49619): >512 µg/mL
CCCCCCCCCCCCCC(=O)N(CCCCNC(=N)N)CC(=O)N(CCCCNC(=N)N)CC(=O)N(CCCCNC(=N)N)CC(N)=O [C14-NhargNhargNharg]	16 (≈ 21.7 µM)	512	8 (≈ 10.8 µM)	512	64 (≈ 86.7 µM)	512	64 (≈ 86.7 µM)	512	64 (≈ 86.7 µM)	512	32 (≈ 43.4 µM)	512	16 (≈ 21.7 µM)	256	16 (≈ 21.7 µM)	256	256 (≈ 347 µM)	512	128 (≈ 173 µM)	512	MIC P.aeruginosa (P.aeruginosa ATCC 27853): 256 µg/mL (≈ 347 µM); MIC P.aeruginosa in the presence of 4% bovine serum albumin (P.aeruginosa ATCC 27853): >512 µg/mL; MIC S.aureus (S.aureus ATCC 29213): 16 µg/mL (≈ 21.7 µM); MIC S.aureus in the presence of 4% bovine serum albumin (S.aureus ATCC 29213): 256 µg/mL; MIC S. maltophilia [2]: 256 µg/mL (≈ 347 µM); MIC S. maltophilia in the presence of 4% bovine serum albumin [2]: >512 µg/mL; Percent haemolysis at 100µg/mL of compound (ovine erythrocytes): 20.34%; MIC A. baumannii [3]: 256 µg/mL (≈ 347 µM); MIC A. baumannii in the presence of 4% bovine serum albumin [3]: >512 µg/mL; MIC S.pneumoniae (S.pneumoniae ATCC 49619): 64 µg/mL (≈ 86.7 µM); MIC S.pneumoniae in the presence of 4% bovine serum albumin (S.pneumoniae ATCC 49619): 256 µg/mL
CCCCCCCCCCCCCC(=O)N(CCCCN)CC(=O)NCC(=O)N(CCCCN)CC(N)=O [C14-NlysGNlys] (Myristoyl-[Nlys]-Gly-[Nlys]-NH2)	32 (≈ 59.2 µM)	512	16 (≈ 29.6 µM)	512	128 (≈ 237 µM)	>512	128 (≈ 237 µM)	>512	128 (≈ 237 µM)	>512	64 (≈ 118 µM)	>512	64 (≈ 118 µM)	512	32 (≈ 59.2 µM)	512	256 (≈ 473 µM)	>512	512 (≈ 947 µM)	>512	MIC P.aeruginosa (P.aeruginosa ATCC 27853): 256 µg/mL (≈ 473 µM); MIC P.aeruginosa in the presence of 4% bovine serum albumin (P.aeruginosa ATCC 27853): >512 µg/mL; MIC S.aureus (S.aureus ATCC 29213): 32 µg/mL (≈ 59.2 µM); MIC S.aureus in the presence of 4% bovine serum albumin (S.aureus ATCC 29213): 512 µg/mL; MIC S. maltophilia [2]: 512 µg/mL (≈ 947 µM); MIC S. maltophilia in the presence of 4% bovine serum albumin [2]: >512 µg/mL; Percent haemolysis at 100µg/mL of compound (ovine erythrocytes): 2.90%; MIC A. baumannii [3]: 256 µg/mL (≈ 473 µM); MIC A. baumannii in the presence of 4% bovine serum albumin [3]: >512 µg/mL; MIC S.pneumoniae (S.pneumoniae ATCC 49619): 256 µg/mL (≈ 473 µM); MIC S.pneumoniae in the presence of 4% bovine serum albumin (S.pneumoniae ATCC 49619): >512 µg/mL
CCCCCCCCCCCCCC(=O)N(CCCCNC(=N)N)CC(=O)NCC(=O)N(CCCCNC(=N)N)CC(N)=O [C14-NhargGNharg]	16 (≈ 25.6 µM)	512	8 (≈ 12.8 µM)	512	64 (≈ 102 µM)	>512	32 (≈ 51.2 µM)	512	64 (≈ 102 µM)	>512	32 (≈ 51.2 µM)	512	32 (≈ 51.2 µM)	512	16 (≈ 25.6 µM)	512	256 (≈ 410 µM)	>512	128 (≈ 205 µM)	>512	MIC P.aeruginosa (P.aeruginosa ATCC 27853): 64 µg/mL (≈ 102 µM); MIC P.aeruginosa in the presence of 4% bovine serum albumin (P.aeruginosa ATCC 27853): >512 µg/mL; MIC S.aureus (S.aureus ATCC 29213): 16 µg/mL (≈ 25.6 µM); MIC S.aureus in the presence of 4% bovine serum albumin (S.aureus ATCC 29213): 512 µg/mL; MIC S. maltophilia [2]: 256 µg/mL (≈ 410 µM); MIC S. maltophilia in the presence of 4% bovine serum albumin [2]: >512 µg/mL; Percent haemolysis at 100µg/mL of compound (ovine erythrocytes): 55.44%; MIC A. baumannii [3]: 512 µg/mL (≈ 819 µM); MIC A. baumannii in the presence of 4% bovine serum albumin [3]: >512 µg/mL; MIC S.pneumoniae (S.pneumoniae ATCC 49619): 128 µg/mL (≈ 205 µM); MIC S.pneumoniae in the presence of 4% bovine serum albumin (S.pneumoniae ATCC 49619): 512 µg/mL
